Laboratory results: patent publication US8901118B2, “Compounds and methods for kinase modulation, and indications therefor” (Plexxikon Inc., priority 2010, dated 2014)

Experiments:
[1] = target: CYP3A4(BFC) (Homo sapiens, UniProt P08684); assay: CYP3A4(BFC) inhibition; type: in vitro ADME; settings: CYP3A4, substrate BFC; read-out: Cyp IC50 3A4(BFC)
Protocol: (§1) CYP (Cytochrome P450) enzymes are the major drug metabolizing enzymes present in the liver. The inhibition of CYP enzyme activity (IC50) for each of CYP1A2, CYP2C19, CYP2C9, CYP2D6, CYP3A4(BFC) and CYP3A4(BQ) is determined for compounds, where inhibition of metabolism of a known substrate leads to a decrease in the fluorescence of the metabolized product. The fluorescence of the product is monitored as a function of compound concentration. Compounds are dissolved in DMSO to a concentration of 100 mM. These are diluted 1 μL into 82 μL of acetonitrile. An 11 μL aliquot of this solution is then added to 204 μL of cofactor mix (1.3% NADPH Regeneration system Solution A, 1.04% NADPH Regeneration system Solution B from BD Biosciences, 5% acetonitrile and 0.05% DMSO). These are then serially diluted 1:1 (160 μL to 160 μL co-factor mix) for a total of 10 points. A 10 μL aliquot of this final mixture is dispensed into 384 well assay plates and incubated for 10 minutes at 37° C. […] Assay plates are incubated at 37° C. (CYP1A2-15 min; CYP2C9-45 min; CYP2C19, 2D6 and 3A4-30 min) and read in a Tecan Safire 2 plate reader (CYP1A2, 2C19 and 3A4 409 ex/460 em; CYP2C9 and 2D6 409 ex/530 em). The signal versus compound concentration is used to determine the IC50. The enzymes and substrates for this assay are obtained from BD Biosciences.

[2] = target: CYP2C19 (Homo sapiens, UniProt P33261); assay: CYP2C19 inhibition (fluorescent substrate CEC); type: in vitro ADME; settings: read-out: Cyp IC50 2C19
CYP2C19, sequence (P33261 whole entry): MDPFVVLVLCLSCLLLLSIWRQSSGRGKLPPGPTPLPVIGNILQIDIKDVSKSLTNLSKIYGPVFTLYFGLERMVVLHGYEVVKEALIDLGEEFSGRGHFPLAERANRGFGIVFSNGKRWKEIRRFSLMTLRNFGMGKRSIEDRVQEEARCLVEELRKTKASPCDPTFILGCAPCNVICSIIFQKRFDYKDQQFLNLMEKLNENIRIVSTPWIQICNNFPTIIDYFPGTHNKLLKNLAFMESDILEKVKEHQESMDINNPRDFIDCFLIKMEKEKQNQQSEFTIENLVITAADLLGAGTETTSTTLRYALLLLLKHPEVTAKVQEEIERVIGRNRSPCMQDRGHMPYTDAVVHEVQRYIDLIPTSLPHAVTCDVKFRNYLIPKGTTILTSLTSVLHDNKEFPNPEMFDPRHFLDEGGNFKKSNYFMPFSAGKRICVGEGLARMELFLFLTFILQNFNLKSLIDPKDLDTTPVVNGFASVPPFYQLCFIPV
Protocol: as §1

[3] = target: c-Kit kinase (Homo sapiens, UniProt P10721); assay: c-Kit kinase biochemical activity assay (AlphaScreen, biotin-(E4Y)10 phosphorylation); settings: 100 μM ATP; read-out: Biochemical Inhibition IC50 Kit
c-Kit kinase, sequence (P10721 26-976): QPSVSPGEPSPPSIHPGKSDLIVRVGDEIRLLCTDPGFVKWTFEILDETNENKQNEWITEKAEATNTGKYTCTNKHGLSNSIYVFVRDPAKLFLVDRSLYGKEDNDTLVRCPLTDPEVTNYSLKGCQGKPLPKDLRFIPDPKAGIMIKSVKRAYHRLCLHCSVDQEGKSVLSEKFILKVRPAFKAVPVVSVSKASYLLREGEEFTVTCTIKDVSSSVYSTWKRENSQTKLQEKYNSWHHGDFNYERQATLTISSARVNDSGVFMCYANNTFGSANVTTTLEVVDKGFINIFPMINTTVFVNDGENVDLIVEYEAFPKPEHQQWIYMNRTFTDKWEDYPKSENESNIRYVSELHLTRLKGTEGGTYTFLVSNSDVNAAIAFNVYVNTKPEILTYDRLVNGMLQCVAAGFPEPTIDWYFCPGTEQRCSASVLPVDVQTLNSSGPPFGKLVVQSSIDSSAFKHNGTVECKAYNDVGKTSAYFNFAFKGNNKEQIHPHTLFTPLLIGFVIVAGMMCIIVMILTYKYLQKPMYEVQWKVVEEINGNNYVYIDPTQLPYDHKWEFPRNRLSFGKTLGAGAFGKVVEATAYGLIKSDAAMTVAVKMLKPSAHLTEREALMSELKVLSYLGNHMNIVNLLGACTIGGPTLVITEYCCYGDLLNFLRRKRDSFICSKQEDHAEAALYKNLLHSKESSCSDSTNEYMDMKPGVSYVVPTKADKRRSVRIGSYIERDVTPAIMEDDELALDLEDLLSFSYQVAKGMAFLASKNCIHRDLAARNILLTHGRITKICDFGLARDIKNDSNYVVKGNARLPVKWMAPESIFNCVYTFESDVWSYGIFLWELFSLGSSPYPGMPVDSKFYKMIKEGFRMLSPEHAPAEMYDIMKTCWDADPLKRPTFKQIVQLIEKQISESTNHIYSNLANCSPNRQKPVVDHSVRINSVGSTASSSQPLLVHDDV
Protocol: Assays for biochemical and cell based activity are known in the art, for example, U.S. Patent Application Publication Number 2009/0076046, the disclosure of which is hereby incorporated by reference as it relates to such assays. For example, in one assay the biochemical activity IC50 values are determined with respect to inhibition of c-Kit kinase activity, where inhibition of phosphorylation of a peptide substrate is measured as a function of compound concentration. Compounds to be tested are dissolved in DMSO to a concentration of 20 mM. These are diluted 30 μL into 120 μL of DMSO (4 mM) and 1 μL is added to an assay plate. These are then serially diluted […] (50 μL to 100 μL DMSO) for a total of 8 points. Plates are prepared such that each kinase reaction is 20 μL in 1× kinase buffer (25 mM HEPES, pH 7.5, 2 mM MgCl2, 2 mM MnCl2, 0.01% Tween-20, 1 mM DTT, 0.01% BSA), 5% DMSO and 100 μM ATP. Substrate is 30 nM biotin-(E4Y) 10 (Millipore). C-kit kinase (obtained from Millipore (#14-559) or is prepared as described in U.S. Patent Application Publication Number 2009/0076046, the disclosure of which is hereby incorporated by reference as it relates to this assay) is at 0.75 ng per sample. After incubation of the kinase reaction for 1 hour at room temperature, 5 μL of donor beads (Streptavidin coated beads (Perkin Elmer Life Science) final concentration 10 μg/mL) in stop buffer (25 mM Hepes pH 7.5, 100 mM EDTA, 0.01% BSA) is added, the sample is mixed and incubated for 20 minutes at room temperature before adding 5 μL of acceptor beads (PY20 coated beads (Perkin Elmer Life Science) final concentration 10 μg/mL) in stop buffer. The samples are incubated for 60 minutes at room temperature and the signal per well is read on Envision reader. Phosphorylated substrate results in binding of the PY20 antibody and association of the donor and acceptor beads such that signal correlates with kinase activity. The signal vs. compound concentration is used to determine the IC50.

[4] = target: Fms kinase (Homo sapiens, UniProt P07333); assay: Fms kinase biochemical activity assay (AlphaScreen, biotin-(E4Y)10 phosphorylation); settings: 100 μM ATP; read-out: Biochemical Inhibition IC50 Fms
Fms kinase, sequence (P07333 20-972): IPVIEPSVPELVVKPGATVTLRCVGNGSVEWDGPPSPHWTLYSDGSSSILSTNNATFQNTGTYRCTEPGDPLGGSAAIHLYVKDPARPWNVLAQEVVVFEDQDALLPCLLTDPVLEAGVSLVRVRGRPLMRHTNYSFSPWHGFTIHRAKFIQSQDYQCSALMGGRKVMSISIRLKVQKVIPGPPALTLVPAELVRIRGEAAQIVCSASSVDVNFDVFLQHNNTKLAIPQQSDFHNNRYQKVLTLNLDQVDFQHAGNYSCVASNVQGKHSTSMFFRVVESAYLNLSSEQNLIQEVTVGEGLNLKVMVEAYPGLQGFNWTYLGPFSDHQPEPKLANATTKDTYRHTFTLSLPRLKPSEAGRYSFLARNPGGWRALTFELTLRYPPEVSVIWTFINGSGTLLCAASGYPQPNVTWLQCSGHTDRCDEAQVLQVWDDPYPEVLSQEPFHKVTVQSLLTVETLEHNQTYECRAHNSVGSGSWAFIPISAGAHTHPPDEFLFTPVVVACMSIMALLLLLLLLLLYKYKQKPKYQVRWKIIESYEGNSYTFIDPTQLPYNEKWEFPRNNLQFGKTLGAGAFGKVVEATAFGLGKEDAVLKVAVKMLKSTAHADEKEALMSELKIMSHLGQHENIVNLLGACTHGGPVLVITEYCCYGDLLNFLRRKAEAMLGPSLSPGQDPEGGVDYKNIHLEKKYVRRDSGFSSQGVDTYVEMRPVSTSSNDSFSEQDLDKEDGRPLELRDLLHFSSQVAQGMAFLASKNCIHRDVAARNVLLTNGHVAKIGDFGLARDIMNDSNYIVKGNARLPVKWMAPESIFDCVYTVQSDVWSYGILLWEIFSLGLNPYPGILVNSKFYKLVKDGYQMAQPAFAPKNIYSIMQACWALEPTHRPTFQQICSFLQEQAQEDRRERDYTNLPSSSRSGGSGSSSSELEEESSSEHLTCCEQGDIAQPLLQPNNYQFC
Protocol: In one assay the biochemical activity IC50 values are determined with respect to inhibition of Fms kinase activity, where inhibition of phosphorylation of a peptide substrate is measured as a function of compound concentration. Compounds to be tested, dissolved in DMSO (1 μL), are added to a white 384-well plate (Costar #3705). Working stocks of Fms kinase (Invitrogen #PV3249), biotin-(E4Y)10 substrate (Upstate Biotech, Cat#12-440), and ATP (Sigma, Cat#A-3377) are prepared in 25 mM Hepes pH 7.5, 0.5 mM MgCl2, 2 mM MnCl2, 2 mM DTT, 0.01% BSA, and 0.01% Tween-20. All components are added to the 384-well plate for a final concentration of 1 ng/well Fms, 30 nM biotin-(E4Y)10 (Upstate Biotechnology) and 100 μM ATP in a volume of 20 μL. Each sample is at 5% DMSO. The plate is then incubated for 20 minutes at 30° C. Just before use, working stocks of donor and acceptor beads from the AlphaScreen PY20 Detection Kit (PerkinElmer, Cat#676601M) are prepared in 25 mM Hepes pH 7.5, pH 7.4, 100 mM EDTA, 0.01% BSA. To stop the reaction, the plate is uncovered in the dark and 5 μL of Donor Beads solution (Streptavidin beads) is added to each well. The plate is incubated at room temperature for 20 minutes. Five microliters of Acceptor Beads solution (PY20 coated beads) are then added to each well. The final concentration of each bead is 10 μg/mL. The plates are incubated at room temperature for 60 minutes. Fluorescence signal is recorded on the Envision reader. Phosphorylated substrate results in binding of the PY20 antibody and association of the donor and acceptor beads such that signal correlates with kinase activity. The signal vs. compound concentration is used to determine the IC50.

CYP3A4(BFC), sequence (P08684 whole entry): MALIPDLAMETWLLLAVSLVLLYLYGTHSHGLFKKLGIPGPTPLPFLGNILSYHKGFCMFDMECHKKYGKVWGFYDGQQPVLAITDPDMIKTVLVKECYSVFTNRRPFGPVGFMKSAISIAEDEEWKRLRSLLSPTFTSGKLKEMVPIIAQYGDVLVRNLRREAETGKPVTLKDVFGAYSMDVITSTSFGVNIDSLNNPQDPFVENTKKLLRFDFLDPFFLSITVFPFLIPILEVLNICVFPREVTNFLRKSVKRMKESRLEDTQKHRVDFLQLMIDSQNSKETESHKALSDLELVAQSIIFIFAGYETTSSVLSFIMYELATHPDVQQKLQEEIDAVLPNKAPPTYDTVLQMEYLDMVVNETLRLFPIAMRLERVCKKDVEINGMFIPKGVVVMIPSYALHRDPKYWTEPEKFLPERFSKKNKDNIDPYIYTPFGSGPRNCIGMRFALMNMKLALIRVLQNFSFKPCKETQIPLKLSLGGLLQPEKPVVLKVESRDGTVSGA

Row | SMILES | IC50 [1] [µM] | IC50 [2] [µM] | IC50 [3] [µM] | IC50 [4] [µM]
1 | CNc1ncnc2[nH]cc(C(=O)c3ccc(Nc4ccc(OC)nc4)nc3F)c12 [Compound P-4083, [2-fluoro-6-[(6-methoxy-3-pyridyl)amino]-3-pyridyl]-[4-(methylamino)-7H-pyrrolo[2,3-d]pyrimidin-5-yl]methanone] | > 10 | > 10 | < 0.1 | < 0.01
2 | O=C(c1ccc(NC2CCC(F)(F)CC2)nc1F)c1c[nH]c2ncnc(NCC(F)(F)F)c12 [Compound P-4061, [6-[(4,4-difluorocyclohexyl)amino]-2-fluoro-3-pyridyl]-[4-(2,2,2-trifluoroethylamino)-7H-pyrrolo[2,3-d]pyrimidin-5-yl]methanone] | > 10 | > 10 | > 1 | < 0.1
3 | CCc1ccc(Nc2ccc(C(=O)c3c[nH]c4ncnc(N)c34)c(F)n2)cn1 [Compound P-4065, (4-amino-7H-pyrrolo[2,3-d]pyrimidin-5-yl)-[6-[(6-ethyl-3-pyridyl)amino]-2-fluoro-3-pyridyl]methanone] | > 10 | > 10 | < 0.1 | < 0.01
4 | CCC(C)Nc1ncnc2[nH]cc(C(=O)c3ccc(Nc4ccc(OC)nc4)nc3F)c12 (stereo not shown) [Compound P-4078, [2-fluoro-6-[(6-methoxy-3-pyridyl)amino]-3-pyridyl]-[4-(sec-butylamino)-7H-pyrrolo[2,3-d]pyrimidin-5-yl]methanone] | > 10 | > 10 | < 1 | < 0.01
5 | COc1ccc(Nc2ccc(C(=O)c3c[nH]c4ncnc(NC5CCCC5)c34)c(F)n2)cn1 [Compound P-4075, [4-(cyclopentylamino)-7H-pyrrolo[2,3-d]pyrimidin-5-yl]-[2-fluoro-6-[(6-methoxy-3-pyridyl)amino]-3-pyridyl]methanone] | > 10 | 5 to 10 | < 1 | < 0.01

Continued, values first:

Row | IC50 [1] [µM] | IC50 [2] [µM] | IC50 [3] [µM] | IC50 [4] [µM] | SMILES
6 | > 10 | 5 to 10 | < 1 | < 1 | COc1cncc(Nc2ccc(C(=O)c3c[nH]c4ncnc(NC5CCCCC5)c34)c(F)n2)c1 [Compound P-4104, [4-(cyclohexylamino)-7H-pyrrolo[2,3-d]pyrimidin-5-yl]-[2-fluoro-6-[(5-methoxy-3-pyridyl)amino]-3-pyridyl]methanone]
7 | < 5 | 5 to 10 | < 1 | < 0.1 | Fc1cc(Cc2c[nH]c3ncnc(NC4CC4)c23)cnc1NC1CCC(F)(F)CC1 [Compound P-4127, N-cyclopropyl-5-[[6-[(4,4-difluorocyclohexyl)amino]-5-fluoro-3-pyridyl]methyl]-7H-pyrrolo[2,3-d]pyrimidin-4-amine]
8 | > 10 | > 10 | < 1 | < 0.01 | CNc1ncnc2[nH]cc(C(=O)c3ccc(NC4CCC(F)(F)CC4)nc3F)c12 [Compound P-4063, [6-[(4,4-difluorocyclohexyl)amino]-2-fluoro-3-pyridyl]-[4-(methylamino)-7H-pyrrolo[2,3-d]pyrimidin-5-yl]methanone]
9 | > 10 | > 10 | < 1 | < 1 | COc1cncc(Nc2ccc(C(=O)c3c[nH]c4ncnc(NCC(F)(F)F)c34)c(F)n2)c1 [Compound P-4103, [2-fluoro-6-[(5-methoxy-3-pyridyl)amino]-3-pyridyl]-[4-(2,2,2-trifluoroethylamino)-7H-pyrrolo[2,3-d]pyrimidin-5-yl]methanone]
10 | > 10 | > 10 | < 0.1 | < 0.01 | CCCNc1ncnc2[nH]cc(C(=O)c3ccc(Nc4ccc(C)nc4)nc3F)c12 [Compound P-4114, [2-fluoro-6-[(6-methyl-3-pyridyl)amino]-3-pyridyl]-[4-(propylamino)-7H-pyrrolo[2,3-d]pyrimidin-5-yl]methanone]
